Reference: the supplement of paper PMC8149375

What was measured:
Settings in all cases: treatment: drug alone; 5 days
769-P [1] = experiment: GI50, drug alone; higher = less potent
Protocol: (§1)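 Primary HTS: 8 RCC cell lines treated with 8 doses (up to 10 uM) of each library drug alone for 5 days; viability read by CellTiter-Glo and normalised to DMSO. GI50 was fitted with XLfit (4-parameter), AUC is the area under the dose-response curve, and minimum viability is the lowest fraction of DMSO viability across doses.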

786-O [2] = experiment: GI50, drug alone; higher = less potent
Protocol: as §1

A498 [3] = experiment: GI50, drug alone; higher = less potent
Protocol: as §1

ACHN [4] = experiment: GI50, drug alone; higher = less potent
Protocol: as §1

CAKI-1 [5] = experiment: GI50, drug alone; higher = less potent
Protocol: as §1

SN12C [6] = experiment: GI50, drug alone; higher = less potent
Protocol: as §1

TK-10 [7] = experiment: GI50, drug alone; higher = less potent
Protocol: as §1

UO-31 [8] = experiment: GI50, drug alone; higher = less potent
Protocol: as §1

769-P [9] = experiment: minimum viability across doses, drug alone, relative to DMSO (fraction); higher = less growth inhibition
Protocol: as §1

786-O [10] = experiment: as above
Protocol: as §1

A498 [11] = experiment: as above
Protocol: as §1

ACHN [12] = experiment: as above
Protocol: as §1

CAKI-1 [13] = experiment: as above
Protocol: as §1

SN12C [14] = experiment: as above
Protocol: as §1

TK-10 [15] = experiment: as above
Protocol: as §1

UO-31 [16] = experiment: as above
Protocol: as §1

769-P [17] = experiment: AUC of dose-response viability curve, drug alone (arbitrary (AUC of normalised viability)); higher = less growth inhibition
Protocol: as §1

786-O [18] = experiment: as above
Protocol: as §1

A498 [19] = experiment: as above
Protocol: as §1

ACHN [20] = experiment: as above
Protocol: as §1

CAKI-1 [21] = experiment: as above
Protocol: as §1

SN12C [22] = experiment: as above
Protocol: as §1

TK-10 [23] = experiment: as above
Protocol: as §1

UO-31 [24] = experiment: as above
Protocol: as §1

SMILES	GI50, drug alone (769-P [1]) [µM]	GI50, drug alone (786-O [2]) [µM]	GI50, drug alone (A498 [3]) [µM]	GI50, drug alone (ACHN [4]) [µM]	GI50, drug alone (CAKI-1 [5]) [µM]	GI50, drug alone (SN12C [6]) [µM]	GI50, drug alone (TK-10 [7]) [µM]	GI50, drug alone (UO-31 [8]) [µM]	minimum viability across doses (769-P [9])	minimum viability across doses (786-O [10])	minimum viability across doses (A498 [11])	minimum viability across doses (ACHN [12])	minimum viability across doses (CAKI-1 [13])	minimum viability across doses (SN12C [14])	minimum viability across doses (TK-10 [15])	minimum viability across doses (UO-31 [16])	AUC of dose-response viability curve (769-P [17])	AUC of dose-response viability curve (786-O [18])	AUC of dose-response viability curve (A498 [19])	AUC of dose-response viability curve (ACHN [20])	AUC of dose-response viability curve (CAKI-1 [21])	AUC of dose-response viability curve (SN12C [22])	AUC of dose-response viability curve (TK-10 [23])	AUC of dose-response viability curve (UO-31 [24])
O=C(Nc1ccc(OC(F)(F)F)cc1)c1sccc1NCc1ccnc2ccccc12 [OSI-930]	> 10	7.47	> 10	5.42	8.11	8.32	> 10	1.35	0.871	0.372	0.722	0.175	0.264	0.158	0.572	0.173	3.39	2.81	3.58	3.25	3.63	3.5	3.23	3.46
CN1CC[C@H](c2c(O)cc(O)c3c(=O)cc(-c4ccccc4Cl)oc23)[C@H](O)C1.Cl [Flavopiridol hydrochloride]	0.225	0.0369	0.262	0.0707	0.17	0.174	0.14	0.125	0.0149	0.00454	0.0135	0.00461	0.0716	0.0105	0.14	0.0096	1.84	0.837	1.92	1.27	1.85	1.63	1.57	1.74
O=c1cc(N2CCOCC2)oc2c(-c3cccc4c3sc3ccccc34)cccc12	9.84	3.26	> 10	6.82	2.78	> 10	9.09	> 10	0.489	0.0967	0.62	0.35	0.184	0.561	0.447	0.476	3.36	2.69	3.5	3.44	2.74	3.26	3.15	3.93
COc1cc(CCc2cc(NC(=O)c3ccc(N4C[C@@H](C)N[C@@H](C)C4)cc3)n[nH]2)cc(OC)c1 [AZD4547]	> 10	7.22	> 10	2.38	1.6	5.18	9.57	9.97	0.9	0.202	0.877	0.165	0.222	0.256	0.51	0.68	3.57	3.17	3.96	2.69	2.59	3.1	3.11	5.09
O=C(NCc1ccccc1)c1csc(Nc2ccncn2)n1 [Thiazovivin]	> 10	> 10	> 10	7.22	> 10	> 10	> 10	4.49	0.717	0.526	0.891	0.369	0.609	0.804	0.69	0.279	3.01	2.69	3.9	3.15	3.17	3.58	3.36	3.55
COc1ccc2c(c1OC)N=C(NC(=O)c1cccnc1)N1CCN=C21 [PIK-90]	> 10	> 10	> 10	> 10	3.06	3.41	> 10	> 10	0.693	0.53	1.02	0.655	0.358	0.175	0.616	0.822	3.07	2.46	3.98	3.1	2.42	2.7	2.75	3.42
Br.Cc1ccc(C(=O)Cn2c3c(sc2=N)CCCC3)cc1 [Pifithrin-α]	> 10	> 10	> 10	> 10	> 10	> 10	> 10	> 10	0.918	0.385	0.946	0.743	0.871	0.76	0.636	0.864	3.5	1.95	4.11	3.14	3.26	3.09	2.84	3.69
Cl.Cl.NC1(c2ccc(-c3nc4ccn5c(=O)[nH]nc5c4cc3-c3ccccc3)cc2)CCC1 [MK-2206 dihydrochloride]	> 10	2.53	> 10	0.0672	5.82	> 10	4.66	9.92	0.626	0.418	0.917	0.383	0.464	0.655	0.435	0.459	3.04	2.51	3.78	2.13	2.92	3.04	2.55	3.43
COc1cccc2cc(-c3nc([C@H]4CC[C@H](C(=O)O)CC4)n4ncnc(N)c34)[nH]c12 [OSI-027]	8.49	1.66	9.27	1.91	1.17	2.39	1.93	2.52	0.408	0.185	0.148	0.105	0.0475	0.168	0.191	0.00484	3.12	2.49	3.75	2.85	2.58	2.77	2.64	3.1
CN1CCN(c2nc(C3=C(c4c[nH]c5ccccc45)C(=O)NC3=O)c3ccccc3n2)CC1 [Sotrastaurin (AEB071)]	> 10	> 10	> 10	> 10	> 10	> 10	> 10	> 10	0.969	0.911	1.12	0.743	0.783	0.91	0.805	1.38	2.58	4	4.36	3.2	3.38	3.44	3.23	5.49
COc1cc2c(Nc3ccc(Br)cc3F)ncnc2cc1OCC1CCN(C)CC1 [Vandetanib (Zactima)]	5.26	> 10	> 10	1.57	5.12	> 10	1.8	9.07	0.324	0.532	0.68	0.133	0.265	0.507	0.166	0.162	2.88	2.98	3.29	2.6	3.12	3.2	2.58	4.05
CC(C)(C)c1nc(-c2cccc(NS(=O)(=O)c3c(F)cccc3F)c2F)c(-c2ccnc(N)n2)s1	> 10	3.87	> 10	0.381	0.567	> 10	5.14	> 10	0.842	0.463	0.91	0.115	0.163	0.942	0.447	0.75	3.52	2.47	4.27	2.19	2.67	3.69	2.54	4.68
Cc1ccc(-n2nc(C(C)(C)C)cc2NC(=O)Nc2ccc(OCCN3CCOCC3)c3ccccc23)cc1 [BIRB 796 (Doramapimod)]	> 10	> 10	> 10	> 10	> 10	> 10	> 10	> 10	0.91	0.748	0.879	0.709	0.858	0.796	0.712	0.787	3.52	3.46	4.02	2.88	3.46	3.36	3.02	3.74
COc1ccc(S(=O)(=O)N(C(C)=O)c2ccccc2/C=C/c2cc[n+]([O-])cc2)cc1 [HMN-214]	0.541	0.116	0.378	0.262	0.293	0.714	0.694	0.455	0.0968	0.00365	0.119	0.127	0.182	0.167	0.285	0.00366	2.36	1.3	2.36	2.14	2.1	2.47	2.14	2.75
FC(F)c1nc2ccccc2n1-c1nc(N2CCOCC2)nc(N2CCOCC2)n1 [ZSTK474]	1.09	0.299	2.17	0.699	0.431	1.23	0.547	1.45	0.127	0.0739	0.0458	0.0879	0.109	0.172	0.158	0.0171	2.38	1.95	2.84	2.36	2.12	2.48	2.17	2.73
CC(=O)Nc1nc(C)c(-c2ccc(Cl)c(S(=O)(=O)NCCO)c2)s1 [PIK-93]	> 10	0.746	> 10	7.46	5.07	8.03	8.01	> 10	0.565	0.202	0.8	0.408	0.287	0.434	0.377	1.15	3.19	1.86	4.19	3.14	3.11	2.98	2.74	4.68
Cc1nc(NC(=O)N2CCC[C@H]2C(N)=O)sc1-c1ccnc(C(C)(C)C(F)(F)F)c1 [BYL719]	> 10	1.65	> 10	8.55	> 10	> 10	4.8	> 10	0.762	0.155	0.982	0.396	0.502	0.638	0.404	0.927	3.47	1.81	4.11	2.83	3.13	2.83	2.54	3.94
